Laboratory results: patent publication US8952024B2, “Herbicidal pyrimidone derivatives” (E I du Pont de Nemours and Company, priority 2009, dated 2015)

Key:
Assay type in all cases: in vivo
Settings in all cases: Postemergence
[1] = system: blackgrass (Alopecurus myosuroides); experiment: Test B pre-/postemergence plant response
Excerpt: (§1) Seeds of plant species selected from blackgrass (Alopecurus myosuroides), downy bromegrass (Bromus tectorum), green foxtail (Setaria viridis), Italian ryegrass (Lolium multiflorum), wheat (Triticum aestivum), wild oat (Avena fatua), deadnettle (henbit deadnettle, Lamium amplexicaule), galium (catchweed bedstraw, Galium aparine), bermudagrass (Cynodon dactylon), Surinam grass (Brachiaria decumbens), cocklebur (Xanthium strumarium), corn (Zea mays), large crabgrass (Digitaria sanguinalis), woolly cupgrass (Eriochloa villosa), giant foxtail (Setaria faberii), goosegrass (Eleusine indica), johnsongrass (Sorghum halepense), kochia (Kochia scoparia), lambsquarters (Chenopodium album), morningglory (Ipomoea coccinea), nightshade (eastern black nightshade, Solanum ptycanthum), yellow nutsedge (Cyperus esculentus), pigweed (Amaranthus retroflexus), ragweed (common ragweed, Ambrosia elatior), Russian thistle (Salsola kali), soybean (Glycine max), sunflower (common oilseed sunflower, Helianthus annuus) and velvetleaf (Abutilon theophrasti) were planted into a blend of loam soil and sand and treated preemergence with test compounds formulated in a non-phytotoxic solvent mixture which included a surfactant.
(§2) At the same time, plants selected from these crop and weed species and also winter barley (Hordeum vulgare), canarygrass (Phalaris minor), chickweed (Stellaria media) and windgrass (Apera spica-venti) were planted in pots containing Redi-Earth® planting medium (Scotts Company, 14111 Scottslawn Road, Marysville, Ohio 43041) comprising spaghnum peat moss, vermiculite, wetting agent and starter nutrients and treated with postemergence applications of some of the test chemicals formulated in the same manner. Plants ranged in height from 2 to 18 cm (1- to 4-leaf stage) for postemergence treatments.
(§3) Treated plants and controls were maintained in a greenhouse for 13 to 15 days, after which time all treated plants were visually evaluated and compared to controls. Plant response ratings, summarized in Table B, are based on a scale of 0 to 100 where 0 is no effect and 100 is complete control. A dash (-) response means no test result.

wild oat (Avena fatua) = experiment: Test B pre-/postemergence plant response
Excerpt: as §1, §2, §3

[2] = system: velvetleaf (Abutilon theophrasti); experiment: Test B pre-/postemergence plant response
Excerpt: as §1, §2, §3

soybean (Glycine max) = experiment: Test B pre-/postemergence plant response
Excerpt: as §1, §2, §3

[3] = system: lambsquarters (Chenopodium album); experiment: Test B pre-/postemergence plant response
Excerpt: as §1, §2, §3

[4] = system: Surinam grass (Brachiaria decumbens); experiment: Test B pre-/postemergence plant response
Excerpt: as §1, §2, §3

[5] = system: pigweed (Amaranthus retroflexus); experiment: Test B pre-/postemergence plant response
Excerpt: as §1, §2, §3

kochia (Kochia scoparia) = experiment: Test B pre-/postemergence plant response
Excerpt: as §1, §2, §3

[6] = system: wheat (Triticum aestivum); experiment: Test B pre-/postemergence plant response
Excerpt: as §1, §2, §3

[7] = system: canarygrass (Phalaris minor); experiment: Test B postemergence plant response
Procedure, shortened: (§4)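 Plants at the 1- to 4-leaf stage (2 to 18 cm tall), grown in pots of peat moss/vermiculite medium with wetting agent and starter nutrients, received postemergence applications of test chemicals. After 13 to 15 days in a greenhouse, injury was rated visually against untreated controls on a 0 (no effect) to 100 (complete control) scale.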

[8] = system: chickweed (Stellaria media); experiment: Test B postemergence plant response
Procedure, shortened: as §4

[9] = system: windgrass (Apera spica-venti); experiment: Test B postemergence plant response
Procedure, shortened: as §4

[10] = 31 g ai/ha, 0 to 100 scale (0 no effect, 100 complete control)
[11] = 62 g ai/ha, scale 0 to 100 (0 no effect, 100 complete control)
[12] = 125 g ai/ha, scale 0 (no effect) to 100 (complete control), 13 to 15 days
[13] = 250 g ai/ha, scale 0 to 100 (0 no effect, 100 complete control), 13 to 15 days

Which results are given for `CCCCn1c(-c2cccc(F)c2)ncc(C(=O)C2=C(O)C3CCC(C3)C2=O)c1=O` (stereo not drawn) [Compound 237]?
Plant response rating, Blackgrass [1, 10]: 50; Plant response rating, Blackgrass [1, 11]: 70; Plant response rating, Blackgrass [1, 12]: 70; Plant response rating, Blackgrass [1, 13]: 80; Plant response rating, Oat, Wild (wild oat (Avena fatua); [10]): 40; Plant response rating, Oat, Wild (wild oat (Avena fatua); [11]): 55; Plant response rating, Oat, Wild (wild oat (Avena fatua); [12]): 60; Plant response rating, Oat, Wild (wild oat (Avena fatua); [13]): 90; Plant response rating, Velvetleaf [2, 10]: 85; Plant response rating, Velvetleaf [2, 11]: 90; Plant response rating, Velvetleaf [2, 12]: 100; Plant response rating, Velvetleaf [2, 13]: 100; Plant response rating, Soybean (soybean (Glycine max); [10]): 95; Plant response rating, Soybean (soybean (Glycine max); [11]): 100; Plant response rating, Soybean (soybean (Glycine max); [12]): 100; Plant response rating, Soybean (soybean (Glycine max); [13]): 100; Plant response rating, Lambsquarters [3, 10]: 95; Plant response rating, Lambsquarters [3, 11]: 100; Plant response rating, Lambsquarters [3, 12]: 100; Plant response rating, Lambsquarters [3, 13]: 100; Plant response rating, Surinam Grass [4, 10]: 85; Plant response rating, Surinam Grass [4, 11]: 98; Plant response rating, Surinam Grass [4, 12]: 100; Plant response rating, Surinam Grass [4, 13]: 100; Plant response rating, Pigweed [5, 10]: 80; Plant response rating, Pigweed [5, 11]: 98; Plant response rating, Pigweed [5, 12]: 100; Plant response rating, Pigweed [5, 13]: 100; Plant response rating, Kochia (kochia (Kochia scoparia); [10]): 65; Plant response rating, Kochia (kochia (Kochia scoparia); [11]): 80; Plant response rating, Kochia (kochia (Kochia scoparia); [12]): 100; Plant response rating, Kochia (kochia (Kochia scoparia); [13]): 100; Plant response rating, Wheat [6, 10]: 50; Plant response rating, Wheat [6, 11]: 70; Plant response rating, Wheat [6, 12]: 85; Plant response rating, Wheat [6, 13]: 85; Plant response rating, Canarygrass [7, 10]: 30; Plant response rating, Canarygrass [7, 11]: 40; Plant response rating, Canarygrass [7, 12]: 50; Plant response rating, Canarygrass [7, 13]: 50; Plant response rating, Chickweed [8, 10]: 90; Plant response rating, Chickweed [8, 11]: 98; Plant response rating, Chickweed [8, 12]: 100; Plant response rating, Chickweed [8, 13]: 100; Plant response rating, Windgrass [9, 10]: 60; Plant response rating, Windgrass [9, 11]: 90; Plant response rating, Windgrass [9, 12]: 98; Plant response rating, Windgrass [9, 13]: 100
